Where “and” joins values, the source holds several entries; their conditions need not be identical. Equal values may be shown once. Each block holds one compound with its values, some of them ahead of it.
Legend:
Barr bodies (inactive X) = experiment: Immunofluorescence, Barr body localization; assay type: cell-based, human
Description: Immunofluorescent images were obtained as previously described (Daou et al. (2011) Pro. Nat. Acad. Sci. U.S.A 108:2747-2752). Following lentiviral infection and/or drug treatment, cells were prepared by fixation in 3% PFA-PBS and then were permeabilized with PBS 0.1% NP40. Following incubation with primary antibodies, the Anti-rabbit Alexa Fluor® 594 and Anti-mouse Alexa Fluor® 488 (Life Technologies) secondary antibodies were used for visualization. Staining with 4′,6-diamidino-2-phenylindole (DAPI) was used to visualize nuclei. Images were acquired using Zeiss Axio Imager Z2 microscope and images were processed using ImageJ program (NIH).

[1] = test system: mammalian mononucleosomes from HEK293T cells; experiment: Protein and peptide pull downs with mammalian mononucleosomes; assay type: binding, human; conditions: mammalian mononucleosomes
Description: (§1) The flow through was removed, the immobilized bait was incubated with 1-2 μg of purified mammalian mono-nucleosomes from HEK293T cells, recombinant mono-nucleosomes (EpiCypher, 16-0006), recombinant H2AK119Ub mono-nucleosomes (EpiCypher, 16-0020) or recombinant protein for 3 hours at 4° C., and the beads were washed 3× with EB150 buffer and then eluted in 2×LDS with 200 mM DTT with heating at 95° C. for 5 minutes. The pull downs were then visualized by immunoblot analysis or colloidal blue staining.
Mammalian mononucleosomes were purified from HEK293T cells similar to as previously described (Mashtalir et al. (2014) Mol. Cell 54:392-406). Cells were scraped from plates, washed with cold PBS, and centrifuged at 5,000 rpm for 5 min at 4° C. Pellets were resuspended in hypotonic buffer (EBO: 50 mM Tris HCl, pH 7.5, 1 mM EDTA, 1 mM MgCl2, 0.1% NP40 supplemented with 1 mM DTT, 1 mM PMSF, and protease inhibitor cocktail (Roche, C756U27) and incubated for 5 min on ice. The suspension was centrifuged at 5,000 rpm for 5 min at 4° C., and pellets were resuspended in 5 volumes of EB420 (EBO: 50 mM Tris HCl, pH 7.5, 420 mM NaCl, 1 mM MgCl2, 0.1% NP40 with supplemented with 1 mM DTT and 1 mM PMSF containing protease inhibitor cocktail (Roche, C756U27). Homogenate incubated on rotator for 1 hour at 4° C. The supernatant was then centrifuged at 20,000 rpm (30,000×g) for 1 hour at 4° C. using a SW32Ti rotor. Supernatant was then discarded and chromatin pellet was washed in MNAse buffer (20 mM Tris-HCl pH 7.5, 100 mM KCl, 2 mM MgCl2, 1 mM CaCl2, […] sucrose, 0.1% NP-40, and protease inhibitor cocktail) three times. Following MNase treatment (3 U/mL for 30 min at room temperature, Sigma-Aldrich), the reaction was quenched with 5 mM of EGTA and 5 mM of EDTA. The samples were then centrifuged at 20,000×g for 1 hour at 4° C. to obtain the soluble chromatin fraction. Soluble chromatin fraction was loaded onto 10-30% glycerol gradient (Mashtalir et al. (2014) Mol. Cell 54:392-406) and fractions containing mononucleosomes were isolated and concentrated using centrifugal filter (Amicon, EMD Millipore).

BAF complex components = experiment: anti-SMARCA4 (BRG1) IP mass spectrometry (Tables 7A-7C); assay type: cell-based, human; conditions: Aska-SS cells -/+ shSSX
Description: Peptide abundance normalized to SMARCA4 abundance. […] SMARCC1, SS18, GFP, SMARCB1, and TBP levels are shown. […] T indicates 0-40 min timecourse; n=3 experimental replicates at each time point; error bars represent standard deviation.
Nuclear extracts were quantified by Bradford assay and 150-200 μg of protein was incubated with 2 μg of antibody in Buffer EB300 (50 mM Tris pH 7.5, 0.1% NP-40, 1 mM EDTA, 1 mM MgCl2, […] with protease inhibitor (Roche, C756U27), 1 mM DTT and 1 mM phenylmethylsulfonyl fluoride (PMSF)) overnight at 4° C. Each sample was then incubated with Protein G Dynabeads® (Thermo Scientific) for 2-3 hours. Beads were washed three times with Buffer EB300 followed by elution with 20 μL of elution buffer (NuPage™ LDS buffer (2×) (Life Technologies) containing 100 mM DTT and water).

[2] = target: T1, mammalian mononucleosomes from HEK-293T cells (Homo sapiens, UniProt P0C0S5); experiment: Quantitative targeted mass spectrometry of histone marks on MBP-SSX1 78aa-bound nucleosomes (Tables 6A-6C); assay type: binding; conditions: SSX1 pulldown, HEK293T nucleosomes; parent peptide H2A.Z; normalized to histone norm peptide, log2
T1 construct: endogenous in cells; host or cells: HEK293T (chromatin digested with MNase, glycerol gradient)
T1 sequence (P0C0S5 whole entry): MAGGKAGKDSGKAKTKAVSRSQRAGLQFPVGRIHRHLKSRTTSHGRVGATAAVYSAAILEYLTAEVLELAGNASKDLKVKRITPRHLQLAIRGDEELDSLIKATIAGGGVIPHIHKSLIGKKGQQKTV
Description: (§2) Mammalian mono-nucleosomes purified from MBP-SSX1 78aa pull downs along with representative input samples were prepared and analyzed by the targeted mass spectrometry pipeline described previously (Creech et al. (2015) Methods 72:57-64). Briefly, samples were prepared by histone extraction by acid precipitation followed by protein digestion from incubation with trypsin. To these prepared samples, synthesized isotopically labeled peptides of histone tails with numerous modifications were added at a known quantity. Each sample was then separated using a Proxeon EASY-nLC™ 1000 UHPLC system (Thermo Scientific) and detected with a Q Exactive™ mass spectrometer (Thermo Scientific). The fold change in abundance of each histone peptide from the input sample compared to the pull down was calculated from the light:heavy ratio in detected peak size.

[3] = target: T2, mammalian mononucleosomes from HEK-293T cells (Homo sapiens, UniProt P62805); experiment: as above; assay type: binding; conditions: SSX1 pulldown, parent peptide H4K20
T2 construct: endogenous in cells; host or cells: HEK293T (chromatin digested with MNase, glycerol gradient)
Description: as §2

[4] = test system: mammalian mononucleosomes from HEK-293T cells; experiment: as above; assay type: binding, human; conditions: SSX1 pulldown
Description: as §2

nucleosome acidic patch = experiment: Detection of nucleosome acidic patch interactions by photocrosslinking; assay type: binding; conditions: diazirine probes in nucleosome acidic patch
Description: Briefly, diazirine-containing recombinant nucleosomes (0.5 uM) were incubated with biotinylated SSX peptides (12.5 uM) in binding buffer (20 mM HEPES, pH 7.9, 4 mM Tris, pH 7.5, 150 mM KCl, 10 mM MgCl2, 10% glycerol, and 0.02% (v/v) IGEPAL CA-630) at 30° C. for 30 mins, and cooled on ice for 5 mins. The reaction mixtures were then irradiated at 365 nm for 10 minutes. Reactions were then analyzed by western blotting employing IRDye® 800CW streptavidin on a LI-COR Odyssey® Infrared Imager. Additional details are found in Dao et al. (2019) Nat.

IMR90 fibroblasts = experiment: Peptide hybridization assay; assay type: cell-based; conditions: methanol-fixed IMR90 fibroblasts, co-stain H2A K119Ub
Description: IMR90 fibroblasts were grown on coverslips, washed with PBS and fixed using 100% ice-cold methanol for 3 minutes. Coverslips were then washed with IF wash buffer (PBS 0.1% NP40 1 mM Sodium azide) 3 times. Selected groups were treated with 200 ng/ml of recombinant USP2 catalytic domain (Boston biochem) for 1 hour. Coverslips were then washed 3 times with IF wash buffer and incubated with 2 μM of biotinylated peptides. Coverslips were subsequently washed 3 times with IF wash buffer and fixed in 3% PFA-PBS for 20 minutes. The rest of the procedure followed accordingly to standard IF protocol. In brief, following incubation with primary antibodies, the Anti-rabit Alexa Fluor® 594 and Streptavidin Alexa Fluor® 488 (Life Technologies) secondary antibodies/reagent were used for visualization of primary antibodies or biotinylated peptides. Staining with 4′,6-diamidino-2-phenylindole (DAPI) was used to visualize nuclei. Images were acquired using Zeiss Axio Imager Z2 microscope and images were processed using ImageJ program (NIH).

[5] = test system: recombinant H2AK119Ub mono-nucleosomes; experiment: Pull downs with WT or H2A K119Ub nucleosomes; assay type: binding
Description: as §1

SYO-1 SS cells = experiment: Cell proliferation assay; assay type: cell-based, human; conditions: SYO-1, rescue with variant
Description: To measure cell proliferation following lentiviral infection, 2.5×10^4 cells per well were seeded in 12-well plates following 48-hour exposure to lentivirus and 5-day selection with puromycin or blasticidin, with Day 7 denoting the day cells were plated after infection and selection. The cell viability in three wells was then measured using a Vi-CELL™ Cell Counter (Beckman, Brea, CA) every 72 hours.

[6] = HEK293T nucleosomes, normalized to histone norm peptide, log2
[7] = HEK293T nucleosomes, parent peptide H2AK5K9, normalized to histone norm peptide, log2
[8] = HEK293T nucleosomes, parent peptide H2AK13K15, normalized to histone norm peptide, log2
[9] = HEK293T nucleosomes, parent peptide H2B, normalized to histone norm peptide, log2
[10] = HEK293T nucleosomes, parent peptide H3K4, normalized to histone norm peptide, log2
[11] = HEK293T nucleosomes, parent peptide H3K9K14, normalized to histone norm peptide, log2
[12] = HEK293T, parent peptide H2AK5K9
[13] = HEK293T, parent peptide H3K9K14

Compound: CCCc1cc(C)[nH]c(=O)c1CNC(=O)c1cc(-c2ccc(N3CCN(C(C)C)CC3)nc2)cc2c1cnn2C(C)C [EZH2 inhibitor, reference compound]
SS18-SSX foci localized to Barr bodies after treatment (Barr bodies (inactive X); 293T cells, versus DMSO control): no change to SS18-SSX foci localized to Barr bodies

Compound: SSX aa166-188: biotinylated 23-residue SSX peptide lacking the W164 residue
nucleosome binding in pull-down [1]: failed to do so

Compound: BCL7C: BAF complex subunit quantified in the IP MS
Aska (shControl)/Aska (shSS18-SSX) LFQ Intensity (Norm to SMARCA4 Rep 1) (BAF complex components): 1.744
Aska (shControl)/Aska (shSS18-SSX) LFQ Intensity (Norm to SMARCA4 Rep 2) (BAF complex components): 1.537

log2norm (Light/Heavy) intensity ratio of H2AZ(1to19)K4ac1 [2]: −0.217 and 0.048
log2norm (Light/Heavy) intensity ratio of H2AZ(1to19)ac0 [2]: −0.784 and −0.697
log2norm (Light/Heavy) intensity ratio of H4(20to23)K20me0 [3, 6]: 0.017 and 0.092
log2norm (Light/Heavy) intensity ratio of H4(20to23)K20me1 [3, 6]: −0.427 and −0.443
log2norm (Light/Heavy) intensity ratio of H4(20to23)K20me2 [3, 6]: −0.414 and −0.391
log2norm (Light/Heavy) intensity ratio of H4(20to23)K20me3 [3, 6]: −0.109 and 0.055
H4(20to23)K20me1 norm to ctrl avg ([3]; HEK293T): 0.211 and 0.195
H4(20to23)K20me2 norm to ctrl avg ([3]; HEK293T): 0.024 and 0.047
Compound: SSX1
log2norm (Light/Heavy) intensity ratio of H2A(4to11)K5ac1 [4, 7]: 0.569 and 0.624
log2norm (Light/Heavy) intensity ratio of H2A(4to11)K5ac1K9ac1 [4, 7]: −0.031 and −0.049
log2norm (Light/Heavy) intensity ratio of H2A(4to11)K9ac1 [4, 7]: −0.254 and −0.375
log2norm (Light/Heavy) intensity ratio of H2A(4to11)ac0 [4, 7]: −0.026 and 0.061
log2norm (Light/Heavy) intensity ratio of H2A(12to17)K13ac1 [4, 8]: 0.032 and −0.047
log2norm (Light/Heavy) intensity ratio of H2A(12to17)K15ac1 [4, 8]: 0.042 and −0.086
log2norm (Light/Heavy) intensity ratio of H2B(1to29)K5ac1 [4, 9]: 0.273 and 0.323
log2norm (Light/Heavy) intensity ratio of H2B(1to29)ac0 [4, 9]: 0.152 and 0.160
log2norm (Light/Heavy) intensity ratio of H3K4ac1 [4, 10]: 0.263 and 0.320
log2norm (Light/Heavy) intensity ratio of H3K4me0 [4, 10]: 0.549 and 0.339
log2norm (Light/Heavy) intensity ratio of H3K4me2 [4, 10]: 0.778 and 0.532
log2norm (Light/Heavy) intensity ratio of H3K4me3 [4, 10]: 0.766 and 0.505
log2norm (Light/Heavy) intensity ratio of H3K9me1S10ph1K14ac1 [4, 11]: −2.668 and −2.507
log2norm (Light/Heavy) intensity ratio of H3K9me2S10ph1K14ac1 [4, 11]: −0.870 and −1.009
log2norm (Light/Heavy) intensity ratio of H3K79me2 ([4]; HEK293T nucleosomes, parent peptide H3K79, normalized to histone norm peptide, log2): 0.826 and 0.557
H2A(4to11)K5ac1K9ac1 norm to ctrl avg [4, 12]: 0.050 and 0.032
H2A(4to11)K9ac1 norm to ctrl avg [4, 12]: 0.404 and 0.283
H2A(12to17)K13ac1 norm to ctrl avg ([4]; HEK293T, parent peptide H2AK13K15): 0.266 and 0.188
H2B(1to29)K5ac1 norm to ctrl avg ([4]; HEK293T, parent peptide H2B): 0.154 and 0.203
H2B(1to29)ac0 norm to ctrl avg ([4]; HEK293T, parent peptide H2B): 0.191 and 0.199
H3K4me0 norm to ctrl avg ([4]; HEK293T, parent peptide H3K4): 0.514 and 0.304
H3K9me1S10ph1K14ac1 norm to ctrl avg [4, 13]: 0.290 and 0.451
H3K9me2S10ph1K14ac0 norm to ctrl avg [4, 13]: 1.301 and 0.892
H3K9me2S10ph1K14ac1 norm to ctrl avg [4, 13]: 1.152 and 1.012

Compound: SSX aa155-188: N-terminally biotinylated peptide of the conserved 34aa region of SSX
nucleosome binding in pull-down [1]: sufficient for SSX nucleosome binding
histone-SSX crosslinks across the acidic patch (nucleosome acidic patch): most prominently at positions H2A E56 and H2B E113
labeling of Barr bodies by biotinylated peptide (IMR90 fibroblasts): Clear labeling of Barr bodies

Compound: ARID1B: BAF complex subunit quantified in the IP MS
Aska (shControl)/Aska (shSS18-SSX) LFQ Intensity (Norm to SMARCA4 Rep 1) (BAF complex components): 0.7212
Aska (shControl)/Aska (shSS18-SSX) LFQ Intensity (Norm to SMARCA4 Rep 2) (BAF complex components): 0.6498

SSX binding to nucleosomes ([5]; WT or H2A K119Ub nucleosomes): not altering SSX binding to nucleosomes
Compound: mutation of the C-terminal acidic region of SSX to alanines: GST-SSX with acidic C-term DPEEDDE replaced by AAAAAAA (SGPKRGKHAWTHRLRERKQLVIYEEISAAAAAAA)
affinity to H2A K119Ub-decorated nucleosomes, pulldown ([5]; H3 immunoblot): relieved the preference of SSX for H2AK119Ub nucleosomes

Compound: SS18-SSX: SS18 aa 1-379 fused to the C-terminal 78 aa of SSX1 (SEQ ID NO: 225)
localization / recruitment to Barr bodies (Barr bodies (inactive X); immunofluorescence): strong colocalization
proliferation of SS cells with shSSX knockdown of endogenous SS18-SSX (SYO-1 SS cells): rescued proliferation

Compound: SSX aa165-188: biotinylated 24-residue SSX peptide lacking the W164 residue
nucleosome binding in pull-down [1]: failed to do so
